Data as given in article PMC11266321 (EJNMMI Radiopharmacy and Chemistry, 2024).
“And” between values parts separate entries of the source, which are not always exact repeats. Equal values may be shown once.

Experiments:
[1] = Tissue distribution of radioactivity in mice; format: in vivo, mouse; settings: mean ± SD n = 4
Protocol: (§1) [^11C]MMP (8.1 MBq/17 pmol) was injected intravenously into 8-week-old male ddY mice (37.8–42.4 g). The tracer-injected mice were housed individually in filter-paper-lined animal-rearing cages until the time of euthanasia. Mice were euthanized by cervical dislocation at 1, 5, 15, 30, 60, and 90 min after injection (n = 4 each). Blood was collected by heart puncture, and the tissues were harvested. Radioactivity excreted into urine was recovered from the cage floor and by cystocentesis from the urinary bladder. The samples were measured for ^11C radioactivity with an auto-gamma counter (Hidex-AMG, Turku, Finland) and weighed. Tissue uptake of ^11C was expressed as the percentage of injected dose per organ (%ID/organ) or the percentage of injected dose per gram of tissue (%ID/g). The tissue distribution data were extrapolated to an adult male phantom using the %kg/g method (Blau [1975]). The radiation absorbed dose and effective dose for human adults were estimated using OLINDA/EXM software (Vanderbilt University, Nashville, TN) (Stabin et al. [2005]). Effective dose was estimated using the risk-weighting factor of ICRP Publication 103 (ICRP [2007]).

[2] = Radiation dosimetry for human adults estimated from mouse data (OLINDA/EXM)
Protocol: as §1

[3] = pH 5.36
[4] = human adults, estimated from mouse data

## CC(C)NC(C)Cc1ccc([11CH3])cc1 (centres unmarked) [[^11C]MMP, N-isopropyl-4-[^11C]methylamphetamine]
[1]; 30 min after i.v. injection
  Injected dose/organ (%), Bladder: 2.40 ± 1.59 %ID/organ
  Injected dose/organ (%), Bladder + urine: 32.99 ± 3.90 %ID/organ
  Injected dose/organ (%), Brain: 1.09 ± 0.11 %ID/organ
  Injected dose/organ (%), Heart: 0.21 ± 0.01 %ID/organ
  Injected dose/organ (%), Kidney: 4.79 ± 1.06 %ID/organ
  Injected dose/organ (%), Large intestine: 1.59 ± 0.61 %ID/organ
  Injected dose/organ (%), Liver: 12.97 ± 1.05 %ID/organ
  Injected dose/organ (%), Lung: 0.79 ± 0.09 %ID/organ
  Injected dose/organ (%), Pancreas: 0.83 ± 0.03 %ID/organ
  Injected dose/organ (%), Small intestine: 3.66 ± 0.59 %ID/organ
  Injected dose/organ (%), Spleen: 0.35 ± 0.07 %ID/organ
  Injected dose/organ (%), Stomach: 1.76 ± 0.50 %ID/organ
  Injected dose/organ (%), Testis: 0.52 ± 0.11 %ID/organ
  Injected dose/organ (%), Urine: 30.59 ± 5.33 %ID/organ
[1]; 60 min after i.v. injection
  Injected dose/g tissue (%), Blood: 0.56 ± 0.23 %ID/g
  Injected dose/g tissue (%), Bone: 0.49 ± 0.04 %ID/g
  Injected dose/g tissue (%), Brain: 1.01 ± 0.09 %ID/g
  Injected dose/g tissue (%), Heart: 0.56 ± 0.22 %ID/g
  Injected dose/g tissue (%), Kidney: 3.73 ± 3.22 %ID/g
  Injected dose/g tissue (%), Large intestine: 0.61 ± 0.27 %ID/g
  Injected dose/g tissue (%), Liver: 2.93 ± 0.85 %ID/g
  Injected dose/g tissue (%), Lung: 1.73 ± 0.45 %ID/g
  Injected dose/g tissue (%), Muscle: 0.51 ± 0.24 %ID/g
  Injected dose/g tissue (%), Pancreas: 2.52 ± 0.24 %ID/g
  Injected dose/g tissue (%), Small intestine: 1.88 ± 0.59 %ID/g
  Injected dose/g tissue (%), Spleen: 1.47 ± 0.44 %ID/g
  Injected dose/g tissue (%), Stomach: 1.27 ± 0.89 %ID/g
  Injected dose/g tissue (%), Testis: 1.85 ± 0.35 %ID/g
  Injected dose/organ (%), Bladder: 0.23 ± 0.12 %ID/organ
  Injected dose/organ (%), Bladder + urine: 53.94 ± 7.66 %ID/organ
  Injected dose/organ (%), Brain: 0.41 ± 0.06 %ID/organ
  Injected dose/organ (%), Heart: 0.11 ± 0.03 %ID/organ
  Injected dose/organ (%), Kidney: 2.37 ± 2.03 %ID/organ
  Injected dose/organ (%), Large intestine: 0.85 ± 0.51 %ID/organ
  Injected dose/organ (%), Liver: 6.29 ± 1.96 %ID/organ
  Injected dose/organ (%), Lung: 0.36 ± 0.10 %ID/organ
  Injected dose/organ (%), Pancreas: 0.47 ± 0.04 %ID/organ
  Injected dose/organ (%), Small intestine: 3.41 ± 0.77 %ID/organ
  Injected dose/organ (%), Spleen: 0.17 ± 0.02 %ID/organ
  Injected dose/organ (%), Stomach: 0.82 ± 0.44 %ID/organ
  Injected dose/organ (%), Testis: 0.53 ± 0.15 %ID/organ
  Injected dose/organ (%), Urine: 53.71 ± 7.68 %ID/organ
[1]; 90 min after i.v. injection
  Injected dose/g tissue (%), Blood: 0.23 ± 0.09 %ID/g
  Injected dose/g tissue (%), Bone: 0.59 ± 0.14 %ID/g
  Injected dose/g tissue (%), Brain: 0.45 ± 0.08 %ID/g
  Injected dose/g tissue (%), Heart: 0.35 ± 0.14 %ID/g
  Injected dose/g tissue (%), Kidney: 6.64 ± 3.76 %ID/g
  Injected dose/g tissue (%), Large intestine: 0.61 ± 0.16 %ID/g
  Injected dose/g tissue (%), Liver: 1.94 ± 0.88 %ID/g
  Injected dose/g tissue (%), Lung: 1.03 ± 0.13 %ID/g
  Injected dose/g tissue (%), Muscle: 0.42 ± 0.18 %ID/g
  Injected dose/g tissue (%), Pancreas: 1.25 ± 0.34 %ID/g
  Injected dose/g tissue (%), Small intestine: 1.34 ± 1.24 %ID/g
  Injected dose/g tissue (%), Spleen: 0.56 ± 0.17 %ID/g
  Injected dose/g tissue (%), Stomach: 1.52 ± 1.28 %ID/g
  Injected dose/g tissue (%), Testis: 1.47 ± 0.44 %ID/g
  Injected dose/organ (%), Bladder: 2.32 ± 1.75 %ID/organ
  Injected dose/organ (%), Bladder + urine: 58 %ID/organ and 57.89 ± 3.18 %ID/organ
  Injected dose/organ (%), Brain: 0.21 ± 0.07 %ID/organ
  Injected dose/organ (%), Heart: 0.07 ± 0.03 %ID/organ
  Injected dose/organ (%), Kidney: 4.56 ± 2.94 %ID/organ
  Injected dose/organ (%), Large intestine: 0.77 ± 0.16 %ID/organ
  Injected dose/organ (%), Liver: 4.85 ± 2.18 %ID/organ
  Injected dose/organ (%), Lung: 0.23 ± 0.03 %ID/organ
  Injected dose/organ (%), Pancreas: 0.25 ± 0.05 %ID/organ
  Injected dose/organ (%), Small intestine: 2.47 ± 2.43 %ID/organ
  Injected dose/organ (%), Spleen: 0.08 ± 0.03 %ID/organ
  Injected dose/organ (%), Stomach: 0.84 ± 0.56 %ID/organ
  Injected dose/organ (%), Testis: 0.49 ± 0.17 %ID/organ
  Injected dose/organ (%), Urine: 55.57 ± 3.04 %ID/organ
[2]; administration of 740 MBq
  Effective dose: 4.0 mSv
  highest absorbed dose, urinary bladder wall: 42.6 mGy
[2]; [4]
  Absorbed dose, Adrenal: 2.21 µGy/MBq
  Absorbed dose, Brain: 3.67 µGy/MBq
  Absorbed dose, Breast: 1.34 µGy/MBq
  Absorbed dose, Gallbladder wall: 2.43 µGy/MBq
  Absorbed dose, Heart wall: 3.02 µGy/MBq
  Absorbed dose, Kidney: 8.6 µGy/MBq and 8.56 µGy/MBq
  Absorbed dose, Liver: 4.78 µGy/MBq
  Absorbed dose, Lower large intestine wall: 4.03 µGy/MBq
  Absorbed dose, Lungs: 7.3 µGy/MBq and 7.29 µGy/MBq
  Absorbed dose, Muscle: 2.70 µGy/MBq
  Absorbed dose, Osteogenic cells: 2.41 µGy/MBq
  Absorbed dose, Ovaries: 3.09 µGy/MBq
  Absorbed dose, Pancreas: 5.5 µGy/MBq and 5.53 µGy/MBq
  Absorbed dose, Red marrow: 2.12 µGy/MBq
  Absorbed dose, Skin: 1.29 µGy/MBq
  Absorbed dose, Small intestine: 4.51 µGy/MBq
  Absorbed dose, Spleen: 3.57 µGy/MBq
  Absorbed dose, Stomach wall: 3.59 µGy/MBq
  Absorbed dose, Testes: 2.66 µGy/MBq
  Absorbed dose, Thymus: 1.70 µGy/MBq
  Absorbed dose, Thyroid: 1.62 µGy/MBq
  Absorbed dose, Total body: 2.65 µGy/MBq
  Absorbed dose, Upper large intestine wall: 3.32 µGy/MBq
  Absorbed dose, Urinary bladder wall: 57.6 µGy/MBq
  Absorbed dose, Uterus: 4.51 µGy/MBq
[3]
  Radiochemical purity (stability test), mean of three runs: 99.7 ± 0.2%
